Legend:
[1] = tested on: reticulosarcoma M5-M5076; assay: Test for reticulosarcoma M5-M5076; type: in vivo, BDF1 hybrid mice; conditions: D1,5,9,13,17; for Number of survivors: day D75; for T/C %: survival time
Procedure: (§1) The antitumour activity was tested in vivo on various tumours inoculated in various ways according to the following general protocol:
(§2) All the male or female mice are inoculated on day D0 with a known quantity of viable tumour cells for ascitic tumours or with a known tumour fragment for solid tumours.
(§3) They are then distributed into various groups. Each group, corresponding to the animals treated by the product under test, is made up of 10 mice. The product under test is dissolved in distilled water and it is administered n times (Dx-Dy), n, y, and x varying according to the protocol chosen, at the rate of 0.1 ml of solution per 10 g by weight of mice treated and at specific doses for each protocol.
(§4) The "negative control" group, corresponding to the animals which are not treated by the product, contains 2√N animals, N being equal to or greater than the total number of mice treated by the product in the same experiment.
(§5) Finally, the tests can also be carried out at the same time as the study of a group called "positive control", of ten animals, which is treated by a molecule, known for its antitumour activity and which can vary according to the protocol chosen, in the same conditions as the groups treated by the product under test.
(§6) The antitumour activity is evaluated, in the case of ascitic tumours, by considering the increase in the survival time of the animals treated in comparison to that of the animals in the "negative control" group, according to the formula: [formula]
(§7) Also, a product is considered as toxic at the dose studied when this T/C value is equal to or less than 85%. In addition, a product is also considered as toxic at the dose studied when the weight variation, expressed in grams and calculated by the formula: […]
The tests are carried out with BDF1 hybrid mice inoculated by intraperitoneal route with 10^6 cells of the M5-M5076 line. The compound under test is administered 5 times successively in sequence (D1,5,9,13,17) by intraperitoneal route. The positive control for the test is cyclophosphamide administered in the same conditions. The number of surviving animals is evaluated on day D75.

[2] = tested on: leukemia tumour line L 1210; assay: In vitro cytotoxic activity on leukemia tumour line L 1210; type: cell-based; conditions: Mus musculus, L1210, 48 h, L 1210, 48 hours contact, 37° C.; read-out: I D 50 (concentration which inhibits the proliferation of the cells by 50%)
Summary of the method: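 Exponentially growing L 1210 leukemia cells were exposed to increasing compound concentrations at 37 °C under CO2 and counted every 24 h. ID50, the concentration inhibiting proliferation by 50%, was calculated after 48 h contact.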

[3] = tested on: leukemia L 1210; assay: Test for leukemia L 1210, IP/IP, D1-D5; type: in vivo, CDF1 hybrid mice; conditions: for Number of survivors: day D60; for T/C %: survival time
Procedure: as §1, §2, §3, §4, §5, §6, §7
(c) Test for leukemia L 1210, IP/IP, D-5 (GERAN et al., Cancer cheomother.,1972, 2, 07-57).
(§8) The tests are carried out with CDF1 hybrid mice inoculated by intraperitoneal route with 10^5 leukemia cells from the L 1210 line. The compound under test is administered for 5 days (D1-D5) by intraperitoneal route. The positive control for the test is 5-fluorouracile administered in the same conditions. The number of surviving animals is evaluated on day D60.

[4] = tested on: leukemia L 1210; assay: Test for leukemia L 1210 IP/D1 IV; type: in vivo, CDF1 hybrid mice; conditions: 20 mg/kg IV
Procedure: as §1, §2, §3, §4, §5, §6, §7, §8
(g) Test for leukemia L 1210 IP/D1 IV. (GERAN et al., Cancer Chemother., 1972, 2, 07-57).
The test is carried out according to the same protocol as that described for test (c), the compound under test being administered by intravenous route only on day D1.

For CCN(CC)CCCNc1ncc(C)c2[nH]c3ccc(O)cc3c12 [Derivative No. 7, 1-(diethylaminopropylamino)-8-hydroxy-4-methyl-5H-pyrido[4,3-b]indole], the “Median day of survival” value ([1]; 2.5 mg/kg IP) was 31.25 days, the “Variation by weight” value ([1]; 2.5 mg/kg IP) was -1.0 g and the Number of survivors ([1]; 2.5 mg/kg IP) was 0/10. For the same compound, the T/C % ([1]; 2.5 mg/kg IP) was 120%, the “Median day of survival” value ([1]; 5 mg/kg IP) was 33.0 days and the “Variation by weight” value ([1]; 5 mg/kg IP) was -1.4 g. For the same compound, the Number of survivors ([1]; 5 mg/kg IP) was 1/10, the T/C % ([1]; 5 mg/kg IP) was 127% and the “Median day of survival” value ([1]; 10 mg/kg IP) was 37.25 days. For the same compound, the “Variation by weight” value ([1]; 10 mg/kg IP) was -1.8 g, the Number of survivors ([1]; 10 mg/kg IP) was 0/10 and the T/C % ([1]; 10 mg/kg IP) was 143%. The “Median day of survival” value ([1]; 20 mg/kg IP) was 41.0 days, the “Variation by weight” value ([1]; 20 mg/kg IP) was -1.9 g and the Number of survivors ([1]; 20 mg/kg IP) was 0/10. The T/C % ([1]; 20 mg/kg IP) was 158%, the “Median day of survival” value ([1]; 40 mg/kg IP) was 42.0 days and the “Variation by weight” value ([1]; 40 mg/kg IP) was -1.8 g. The Number of survivors ([1]; 40 mg/kg IP) was 1/10, the T/C % ([1]; 40 mg/kg IP) was 161% and the IC50 [2] was 60 nM. For the same compound, the “Median day of survival” value ([3]; 0.625 mg/kg IP) was 11.75 days, the “Variation by weight” value ([3]; 0.625 mg/kg IP) was -0.9 g and the Number of survivors ([3]; 0.625 mg/kg IP) was 0/10. The T/C % ([3]; 0.625 mg/kg IP) was 133%, the “Median day of survival” value ([3]; 1.25 mg/kg IP) was 14.25 days and the “Variation by weight” value ([3]; 1.25 mg/kg IP) was -1.2 g. For the same compound, the Number of survivors ([3]; 1.25 mg/kg IP) was 0/10, the T/C % ([3]; 1.25 mg/kg IP) was 162% and the “Median day of survival” value ([3]; 2.5 mg/kg IP) was 20.75 days. The “Variation by weight” value ([3]; 2.5 mg/kg IP) was -1.1 g, the Number of survivors ([3]; 2.5 mg/kg IP) was 4/10 and the T/C % ([3]; 2.5 mg/kg IP) was 236%. The “Median day of survival” value ([3]; 5 mg/kg IP) was 14.0 days, the “Variation by weight” value ([3]; 5 mg/kg IP) was -0.8 g and the Number of survivors ([3]; 5 mg/kg IP) was 2/10. The T/C % ([3]; 5 mg/kg IP) was 159%, the “Median day of survival” value ([3]; 10 mg/kg IP) was 37.0 days and the “Variation by weight” value ([3]; 10 mg/kg IP) was -2.2 g. For the same compound, the Number of survivors ([3]; 10 mg/kg IP) was 5/10, the T/C % ([3]; 10 mg/kg IP) was 420% and the “Median day of survival” value ([3]; 20 mg/kg IP) was 35.0 days. The “Variation by weight” value ([3]; 20 mg/kg IP) was -4.2 g, the Number of survivors ([3]; 20 mg/kg IP) was 5/10 and the T/C % ([3]; 20 mg/kg IP) was 398%. The “Median day of survival” value ([3]; 30 mg/kg IP) was 8.25 days, the “Variation by weight” value ([3]; 30 mg/kg IP) was -5.6 g and the Number of survivors ([3]; 30 mg/kg IP) was 0/10. The T/C % ([3]; 30 mg/kg IP) was 94%.

In the case of Cc1cnc(NCCCN(C)C)c2c1[nH]c1ccc(O)cc12 [Derivative No. 10, 1-(3-dimethylaminopropylamino)-8-hydroxy-4-methyl-5H-pyrido[4,3-b]indole], the “Median day of survival” value ([1]; 1.25 mg/kg IP) is reported as 34.0 days, the “Variation by weight (g)” value ([1]; 1.25 mg/kg IP) is reported as “+2.7 g” and the Number of survivors ([1]; 1.25 mg/kg IP) is reported as 1/10. For the same compound, the T/C % ([1]; 1.25 mg/kg IP) was 133%, the “Median day of survival” value ([1]; 2.5 mg/kg IP) was 33.0 days and the “Variation by weight (g)” value ([1]; 2.5 mg/kg IP) was “+0.4 g”. The Number of survivors ([1]; 2.5 mg/kg IP) was 1/10, the T/C % ([1]; 2.5 mg/kg IP) was 129% and the “Median day of survival” value ([1]; 5 mg/kg IP) was 40.0 days. For the same compound, the “Variation by weight (g)” value ([1]; 5 mg/kg IP) was “+2.1 g”, the Number of survivors ([1]; 5 mg/kg IP) was 1/10 and the T/C % ([1]; 5 mg/kg IP) was 156%. The “Median day of survival” value ([1]; 10 mg/kg IP) was 42.0 days, the “Variation by weight (g)” value ([1]; 10 mg/kg IP) was “+1.2 g” and the Number of survivors ([1]; 10 mg/kg IP) was 1/10. The T/C % ([1]; 10 mg/kg IP) was 164%, the “Median day of survival” value ([1]; 20 mg/kg IP) was 44.75 days and the “Variation by weight” value ([1]; 20 mg/kg IP) was 0.0 g. The Number of survivors ([1]; 20 mg/kg IP) was 1/10, the T/C % ([1]; 20 mg/kg IP) was 175% and the “Median day of survival” value ([1]; 40 mg/kg IP) was 46.0 days. For the same compound, the “Variation by weight” value ([1]; 40 mg/kg IP) was -2.8 g, the Number of survivors ([1]; 40 mg/kg IP) was 2/10 and the T/C % ([1]; 40 mg/kg IP) was 180%. For the same compound, the “Median day of survival” value ([3]; 1.25 mg/kg IP) was 12.75 days, the “Variation by weight” value ([3]; 1.25 mg/kg IP) was -1.7 g and the Number of survivors ([3]; 1.25 mg/kg IP) was 1/10. The T/C % ([3]; 1.25 mg/kg IP) was 145%, the “Median day of survival” value ([3]; 2.5 mg/kg IP) was 20.0 days and the “Variation by weight” value ([3]; 2.5 mg/kg IP) was -2.1 g. For the same compound, the Number of survivors ([3]; 2.5 mg/kg IP) was 4/10, the T/C % ([3]; 2.5 mg/kg IP) was 227% and the “Median day of survival” value ([3]; 5 mg/kg IP) was greater than 60 days. The “Variation by weight” value ([3]; 5 mg/kg IP) was -2.7 g, the Number of survivors ([3]; 5 mg/kg IP) was 6/10 and the T/C % ([3]; 5 mg/kg IP) was greater than 682%. For the same compound, the “Median day of survival” value ([3]; 10 mg/kg IP) was 15.25 days, the “Variation by weight” value ([3]; 10 mg/kg IP) was -3.1 g and the Number of survivors ([3]; 10 mg/kg IP) was 4/10. For the same compound, the T/C % ([3]; 10 mg/kg IP) was 173%, the “Median day of survival” value ([3]; 20 mg/kg IP) was 8.4 days and the “Variation by weight” value ([3]; 20 mg/kg IP) was -5.6 g. For the same compound, the Number of survivors ([3]; 20 mg/kg IP) was 0/10 and the T/C % ([3]; 20 mg/kg IP) was 95%.

In the case of Cc1cnc(NCCCN(C)C)c2c3cc(O)ccc3n(C)c12 [Derivative No. 14, 4,5-dimethyl 1(3-dimethylaminopropylamino)-8-hydroxy-5H-pyrido[4,3-b]indole], the IC50 [2] is reported as 14 nM, the “Median day of survival” value [4] is reported as 14.0 days and the “Variation by weight” value [4] is reported as -1.1 g. The Number of survivors ([4]; day D60) was 0/10 and the T/C % ([4]; survival time) was 157%.
